Measurements: patent US12371428B2 (Exelixis, Inc., priority 2019, dated 2025)
Read-outs that look alike come from different tables or passages of the source.

Experiments:
[1] = target: AXL (phospho-AXL, Gas6-stimulated A-172 glioblastoma cells) (Homo sapiens (Human), UniProt P30530); assay: AXL autophosphorylation ELISA in A-172 cells (Example E); format: cell-based; conditions: cellular activity, read-out: Axl IC50
Procedure: A-172 cells were incubated at 37° C., 5% CO2 for 24 h and then starved for 24 h in serum-free medium. Test compounds were serially diluted to produce an 8-point dose curve in fresh serum-free medium to a final concentration of 0.3% DMSO (vehicle) and added to the cells and incubated for 1 h. […] Lysates were collected and 100 μL/well added into the human phospho-AXL DuoSet IC ELISA (R&D Systems #DYC2228-2). […] Positive control wells (100% activity) contained Gas6-stimulated, DMSO-treated cell lysates. Negative control wells (0% activity) contained Gas6-stimulated, reference inhibitor-treated cell lysates. IC50 values were calculated by nonlinear regression analysis using a 4-parameter logistic curve fit in ActivityBase XE (IDBS).

[2] = target: Met (phospho-Met, HGF-stimulated PC-3 prostate cancer cells) (Homo sapiens (Human), UniProt P08581); assay: Met autophosphorylation ELISA in PC-3 cells (Example F); format: cell-based; conditions: cellular activity, read-out: c-Met IC50
Outline: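 IC50 values derive from a 4-parameter logistic fit of phospho-Met (panTyr) sandwich ELISA signals in PC-3 lysates, scaled between DMSO and reference-inhibitor wells. Cells, starved 3 h in serum-free medium, had 1 h compound exposure (8 doses, 0.3% DMSO) before 10 min stimulation with 100 ng/mL HGF.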

[3] = target: Mer (phospho-Mer, MERTK-transfected 293A cells) (Homo sapiens (Human), UniProt Q12866); assay: Mer autophosphorylation ELISA in transient transfected 293A cells (Example H); format: cell-based; conditions: cellular activity
Outline: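 Inhibition of cellular Mer autophosphorylation is determined in 293A cells transiently expressing human MERTK after 1 h compound exposure (8 concentrations, serum-free, 0.3% DMSO). Phospho-Mer in clarified lysates is measured by ELISA, with DMSO and reference-inhibitor wells defining the 100% and 0% activity limits.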

[4] = target: Human KDR (residues 790-1356) (Homo sapiens (Human), UniProt P35968); assay: Human KDR kinase assay, HTRF KinEase (Example B-2); format: biochemical
Outline: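 Human KDR residues 790-1356 (0.1 ng/well) in buffer with 5 mM MgCl2, 1 mM MnCl2, 1 mM DTT, biotinylated peptide substrate, ATP at Km (4.0 μM), 3% DMSO, 10 compound concentrations; 40 min, room temperature. EDTA stop, streptavidin-XL665/Eu-TK antibody HTRF read 665/620 nm; 4-parameter IC50.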

[5] = target: Human MER (residues 528-999) (Homo sapiens (Human), UniProt Q12866); assay: Human Mer kinase assay, HTRF KinEase (Example C-2); format: biochemical
Outline: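 IC50 values from 10 concentrations via 4-parameter logistic fit of […], with DMSO as 100% and 1 μM reference compound as 0% activity. Reaction: MER kinase domain 528-999, 1 ng/well, 40 μM ATP (Km), biotin peptide, 5 mM MgCl2, 1 mM DTT, 3% DMSO, room temperature 60 min; HTRF streptavidin-XL665/Eu-antibody detection.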

[6] = target: Human MET (residues 956-1390) (Homo sapiens (Human), UniProt P08581); assay: Human Met kinase assay, HTRF KinEase (Example D-2); format: biochemical; conditions: read-out: c-Met IC50
Outline: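 IC50 values come from a 4-parameter logistic fit of the […] fluorescence ratio, set between DMSO (100%) and reference compound at 1 μM (0%). Reactions held MET 956-1390 at 0.1 ng/well, ATP at Km, biotinylated peptide, 5 mM MgCl2, 1 mM MnCl2, 1 mM DTT and 3% DMSO, and ran 40 min at room temperature before streptavidin-XL665/Eu-antibody detection.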

[7] = target: KDR (phospho-KDR, VEGF165-stimulated HUVEC cells) (Homo sapiens (Human), UniProt P35968); assay: KDR autophosphorylation ELISA in HUVEC cells (Example G); format: cell-based; conditions: cellular activity; KDR autophosphorylation ELISA in HUVEC cells
Outline: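 HUVEC cells, serum-starved 24 h, were treated 1 h with an 8-point compound dilution (0.3% DMSO) and then stimulated with 100 ng/mL VEGF165 for 5 min. Phospho-KDR in lysates was quantified by sandwich ELISA against a phospho-KDR standard. IC50 from a 4-parameter logistic fit, normalised between stimulated DMSO and unstimulated controls.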

[8] = AXL autophosphorylation ELISA in A-172 cells
[9] = Met autophosphorylation ELISA in PC-3 cells
[10] = Mer autophosphorylation ELISA in transient transfected 293A cells
[11] = protocol of Example B-2 (other compounds)
[12] = protocol of Example C-2 (other compounds)
[13] = protocol of Example D-2 (other compounds)

Chain of Met (phospho-Met, HGF-stimulated PC-3 prostate cancer cells) (P08581 25-1390): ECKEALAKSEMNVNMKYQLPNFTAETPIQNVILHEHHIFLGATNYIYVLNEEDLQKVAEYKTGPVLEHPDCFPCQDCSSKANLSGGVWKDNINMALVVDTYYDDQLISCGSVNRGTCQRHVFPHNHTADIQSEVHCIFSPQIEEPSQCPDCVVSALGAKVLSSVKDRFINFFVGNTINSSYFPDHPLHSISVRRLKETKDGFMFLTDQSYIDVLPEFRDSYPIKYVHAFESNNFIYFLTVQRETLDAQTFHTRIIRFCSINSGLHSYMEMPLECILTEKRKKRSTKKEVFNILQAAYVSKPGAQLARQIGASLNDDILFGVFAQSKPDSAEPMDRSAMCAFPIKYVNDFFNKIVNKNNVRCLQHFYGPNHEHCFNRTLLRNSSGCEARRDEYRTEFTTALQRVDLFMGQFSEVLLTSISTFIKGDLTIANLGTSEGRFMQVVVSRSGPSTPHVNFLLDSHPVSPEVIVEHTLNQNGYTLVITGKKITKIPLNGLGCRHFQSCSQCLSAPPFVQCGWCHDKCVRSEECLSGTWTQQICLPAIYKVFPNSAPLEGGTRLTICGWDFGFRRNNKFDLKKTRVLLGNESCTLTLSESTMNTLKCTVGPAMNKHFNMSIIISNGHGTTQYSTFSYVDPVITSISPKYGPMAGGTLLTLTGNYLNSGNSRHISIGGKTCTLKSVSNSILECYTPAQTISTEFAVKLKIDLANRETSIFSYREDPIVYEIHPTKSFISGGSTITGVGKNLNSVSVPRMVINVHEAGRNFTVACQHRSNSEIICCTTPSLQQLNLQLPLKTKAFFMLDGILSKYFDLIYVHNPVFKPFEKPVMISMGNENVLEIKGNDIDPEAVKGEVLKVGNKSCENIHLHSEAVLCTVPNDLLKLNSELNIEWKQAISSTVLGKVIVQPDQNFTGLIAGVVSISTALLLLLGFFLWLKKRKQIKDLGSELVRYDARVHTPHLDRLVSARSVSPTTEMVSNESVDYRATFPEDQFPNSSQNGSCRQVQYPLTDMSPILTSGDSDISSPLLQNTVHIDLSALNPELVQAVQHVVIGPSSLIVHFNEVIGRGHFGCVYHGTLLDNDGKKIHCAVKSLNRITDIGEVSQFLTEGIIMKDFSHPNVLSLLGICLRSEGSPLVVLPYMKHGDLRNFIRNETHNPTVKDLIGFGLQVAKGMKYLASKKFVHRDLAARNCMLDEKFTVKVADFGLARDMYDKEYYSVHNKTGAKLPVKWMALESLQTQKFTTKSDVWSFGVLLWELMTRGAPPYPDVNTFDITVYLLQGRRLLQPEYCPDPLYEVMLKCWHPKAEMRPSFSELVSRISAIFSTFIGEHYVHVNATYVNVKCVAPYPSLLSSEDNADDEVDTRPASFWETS
Chain of AXL (phospho-AXL, Gas6-stimulated A-172 glioblastoma cells) (P30530 26-894): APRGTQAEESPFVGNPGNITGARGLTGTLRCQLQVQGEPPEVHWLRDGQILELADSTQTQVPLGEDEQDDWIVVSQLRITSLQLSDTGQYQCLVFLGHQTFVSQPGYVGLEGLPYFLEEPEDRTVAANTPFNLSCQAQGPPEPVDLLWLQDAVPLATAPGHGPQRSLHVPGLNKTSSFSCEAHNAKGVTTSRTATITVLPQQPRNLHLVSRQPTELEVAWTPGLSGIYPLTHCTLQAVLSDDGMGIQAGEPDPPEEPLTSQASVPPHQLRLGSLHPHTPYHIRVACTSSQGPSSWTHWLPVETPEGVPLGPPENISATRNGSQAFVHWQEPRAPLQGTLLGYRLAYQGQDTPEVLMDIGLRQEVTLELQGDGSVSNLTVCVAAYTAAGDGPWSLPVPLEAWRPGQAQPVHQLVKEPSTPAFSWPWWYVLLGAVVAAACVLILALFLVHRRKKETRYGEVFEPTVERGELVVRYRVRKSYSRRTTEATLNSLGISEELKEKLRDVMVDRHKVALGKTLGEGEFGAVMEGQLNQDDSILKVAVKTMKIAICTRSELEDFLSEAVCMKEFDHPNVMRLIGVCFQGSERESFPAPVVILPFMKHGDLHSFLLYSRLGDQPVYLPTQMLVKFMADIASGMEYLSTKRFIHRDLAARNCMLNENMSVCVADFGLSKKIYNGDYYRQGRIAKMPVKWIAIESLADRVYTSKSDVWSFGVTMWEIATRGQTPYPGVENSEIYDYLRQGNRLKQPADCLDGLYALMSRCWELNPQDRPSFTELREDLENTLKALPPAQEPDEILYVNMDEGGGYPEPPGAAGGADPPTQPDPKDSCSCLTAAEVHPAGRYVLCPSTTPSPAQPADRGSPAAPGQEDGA
Chain of Human MER (residues 528-999) (Q12866 528-999): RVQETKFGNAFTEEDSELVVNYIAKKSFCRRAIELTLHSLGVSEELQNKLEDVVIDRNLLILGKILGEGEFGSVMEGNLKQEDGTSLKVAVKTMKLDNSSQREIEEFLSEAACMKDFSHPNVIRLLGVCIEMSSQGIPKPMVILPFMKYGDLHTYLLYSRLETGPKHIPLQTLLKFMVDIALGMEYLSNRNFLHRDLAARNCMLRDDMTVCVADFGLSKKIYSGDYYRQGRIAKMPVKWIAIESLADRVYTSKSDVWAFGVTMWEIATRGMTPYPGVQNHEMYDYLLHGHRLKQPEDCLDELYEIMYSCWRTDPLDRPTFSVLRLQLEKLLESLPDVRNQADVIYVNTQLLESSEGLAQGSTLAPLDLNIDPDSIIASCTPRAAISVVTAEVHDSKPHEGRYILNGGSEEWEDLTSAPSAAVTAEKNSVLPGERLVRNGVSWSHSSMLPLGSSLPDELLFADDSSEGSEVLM
Chain of Human MET (residues 956-1390) (P08581 956-1390): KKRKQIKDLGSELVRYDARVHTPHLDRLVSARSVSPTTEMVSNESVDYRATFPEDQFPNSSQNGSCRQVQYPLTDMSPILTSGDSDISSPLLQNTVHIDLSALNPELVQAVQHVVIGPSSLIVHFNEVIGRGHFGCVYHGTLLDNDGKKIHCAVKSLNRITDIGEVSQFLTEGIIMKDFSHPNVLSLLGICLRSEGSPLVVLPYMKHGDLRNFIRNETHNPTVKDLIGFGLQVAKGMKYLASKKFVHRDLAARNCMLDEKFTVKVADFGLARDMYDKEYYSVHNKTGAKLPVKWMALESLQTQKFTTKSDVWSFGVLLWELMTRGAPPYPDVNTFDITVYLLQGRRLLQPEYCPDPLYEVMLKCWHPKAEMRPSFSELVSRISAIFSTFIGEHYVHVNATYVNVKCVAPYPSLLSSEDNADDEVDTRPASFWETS
Chain of Human KDR (residues 790-1356) (P35968 790-1356): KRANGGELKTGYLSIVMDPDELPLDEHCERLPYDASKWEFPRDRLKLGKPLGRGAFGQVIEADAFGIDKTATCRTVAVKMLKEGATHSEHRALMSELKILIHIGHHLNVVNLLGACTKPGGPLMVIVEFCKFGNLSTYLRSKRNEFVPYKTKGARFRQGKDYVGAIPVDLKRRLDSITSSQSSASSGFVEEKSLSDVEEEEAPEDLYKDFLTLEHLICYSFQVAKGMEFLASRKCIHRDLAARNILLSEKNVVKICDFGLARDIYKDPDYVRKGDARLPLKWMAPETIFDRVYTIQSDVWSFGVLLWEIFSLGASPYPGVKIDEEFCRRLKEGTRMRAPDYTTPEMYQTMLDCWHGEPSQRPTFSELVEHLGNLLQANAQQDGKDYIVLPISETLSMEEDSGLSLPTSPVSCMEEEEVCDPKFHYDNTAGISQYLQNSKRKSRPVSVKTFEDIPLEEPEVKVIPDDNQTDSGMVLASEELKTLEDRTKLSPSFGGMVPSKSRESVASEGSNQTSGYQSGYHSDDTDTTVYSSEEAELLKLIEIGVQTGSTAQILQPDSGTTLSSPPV
Chain of KDR (phospho-KDR, VEGF165-stimulated HUVEC cells) (P35968 20-1356): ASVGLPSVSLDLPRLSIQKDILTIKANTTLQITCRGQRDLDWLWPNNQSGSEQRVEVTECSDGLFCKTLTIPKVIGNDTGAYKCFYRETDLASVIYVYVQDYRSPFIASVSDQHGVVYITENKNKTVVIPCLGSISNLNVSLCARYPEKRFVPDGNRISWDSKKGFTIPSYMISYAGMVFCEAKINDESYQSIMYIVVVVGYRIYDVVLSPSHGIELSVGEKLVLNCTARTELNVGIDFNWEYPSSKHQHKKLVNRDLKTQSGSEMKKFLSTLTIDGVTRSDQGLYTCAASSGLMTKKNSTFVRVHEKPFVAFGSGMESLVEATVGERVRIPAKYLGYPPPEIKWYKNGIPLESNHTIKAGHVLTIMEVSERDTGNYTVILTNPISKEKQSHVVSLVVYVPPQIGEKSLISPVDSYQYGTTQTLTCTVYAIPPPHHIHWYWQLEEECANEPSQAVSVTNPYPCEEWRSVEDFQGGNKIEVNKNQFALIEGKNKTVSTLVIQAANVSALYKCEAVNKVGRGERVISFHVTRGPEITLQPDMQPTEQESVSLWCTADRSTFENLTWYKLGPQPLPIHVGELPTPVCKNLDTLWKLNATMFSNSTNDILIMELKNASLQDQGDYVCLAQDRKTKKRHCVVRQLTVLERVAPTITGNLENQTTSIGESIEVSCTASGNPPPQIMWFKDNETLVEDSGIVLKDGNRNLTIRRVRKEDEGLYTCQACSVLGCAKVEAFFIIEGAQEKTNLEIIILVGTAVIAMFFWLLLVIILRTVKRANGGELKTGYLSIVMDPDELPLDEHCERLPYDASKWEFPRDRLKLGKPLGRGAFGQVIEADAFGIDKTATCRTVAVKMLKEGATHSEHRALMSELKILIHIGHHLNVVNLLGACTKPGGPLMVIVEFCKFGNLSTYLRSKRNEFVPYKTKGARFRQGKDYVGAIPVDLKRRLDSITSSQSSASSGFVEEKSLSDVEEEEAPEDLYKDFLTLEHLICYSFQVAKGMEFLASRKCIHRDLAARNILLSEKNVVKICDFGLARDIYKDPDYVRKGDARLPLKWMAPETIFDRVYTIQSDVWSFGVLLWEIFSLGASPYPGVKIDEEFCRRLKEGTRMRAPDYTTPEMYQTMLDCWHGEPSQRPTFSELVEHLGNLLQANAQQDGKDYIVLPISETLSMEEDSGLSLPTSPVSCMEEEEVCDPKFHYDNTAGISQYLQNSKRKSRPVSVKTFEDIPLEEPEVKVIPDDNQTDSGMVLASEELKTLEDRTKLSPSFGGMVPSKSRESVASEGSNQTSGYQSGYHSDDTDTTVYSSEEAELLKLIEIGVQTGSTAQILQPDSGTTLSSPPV

Row | SMILES | IC50 [1, 8] [nM] | IC50 [2, 9] [nM] | IC50 [3, 10] [nM] | IC50 [4, 11] [nM] | IC50 [5, 12] [nM] | IC50 [6, 13] [nM] | other results
1 | COc1cnc2c(Oc3ccc(NC(=O)c4cn(C(F)F)c(C)c(-c5ccc(F)cc5)c4=O)cc3F)ccnc2c1 [Compound 626, 1-(Difluoromethyl)-N-[3-fluoro-4-[(7-methoxy-1,5-naphthyridin-4-yl)oxy]phenyl]-5-(4-fluorophenyl)-6-methyl-4-oxopyridine-3-carboxamide] | < 100 | < 100 | < 100 |  |  |  | 
2 | COc1cc2nccc(Oc3ccc(NC(=O)c4cn(CC(F)F)c(C)c(-c5ccc(F)cc5)c4=O)cc3F)c2nc1OC [Compound 623, 1-(2,2-Difluoroethyl)-N-[4-[(6,7-dimethoxy-1,5-naphthyridin-4-yl)oxy]-3-fluorophenyl]-5-(4-fluorophenyl)-6-methyl-4-oxopyridine-3-carboxamide] | < 100 | < 100 | < 100 |  |  |  | 
3 | COCc1nc(C)cc(O)c1C(=O)Nc1ccc(Oc2ccnc3cc(OC)c(OC)nc23)c(F)c1 [Compound 492, N-[4-[(6,7-dimethoxy-1,5-naphthyridin-4-yl)oxy]-3-fluorophenyl]-4-hydroxy-2-(methoxymethyl)-6-methylpyridine-3-carboxamide] | 100 to 300 | < 100 | < 100 |  |  |  | 
4 | COc1cnc2c(Oc3ccc(NC(=O)c4c(C)n(CCF)cc(-c5ccc(F)c(F)c5)c4=O)cc3F)ccnc2c1 [Compound 807, 5-(3,4-difluorophenyl)-1-(2-fluoroethyl)-N-[3-fluoro-4-[(7-methoxy-1,5-naphthyridin-4-yl)oxy]phenyl]-2-methyl-4-oxopyridine-3-carboxamide] |  |  |  |  |  |  | IC50 ([1]; A-172 cells): < 100 nM; IC50 ([2]; PC-3 cells): 100 to 300 nM; IC50 ([3]; transfected 293A cells): < 100 nM
5 | COc1nc2c(Oc3ccc(NC(=O)c4c(C)nc(C)c(-c5ccc(F)cc5C)c4O)cc3F)ccnc2cc1N [Compound 804, N-[4-[(7-amino-6-methoxy-1,5-naphthyridin-4-yl)oxy]-3-fluorophenyl]-5-(4-fluoro-2-methylphenyl)-4-hydroxy-2,6-dimethylpyridine-3-carboxamide] |  |  |  |  |  |  | IC50 ([1]; A-172 cells): < 100 nM; IC50 ([2]; PC-3 cells): < 100 nM; IC50 ([3]; transfected 293A cells): < 100 nM
6 | COc1cc2nccc(Oc3ccc(NC(=O)c4cc(F)c(C)n(-c5ccc(F)cc5)c4=O)cc3)c2nc1OC [Compound 338, N-[4-[(6,7-dimethoxy-1,5-naphthyridin-4-yl)oxy]phenyl]-5-fluoro-1-(4-fluorophenyl)-6-methyl-2-oxopyridine-3-carboxamide] | < 100 | < 100 | < 100 |  |  |  | 
7 | COCc1nc(C)c(-c2ccc(F)cc2F)c(O)c1C(=O)Nc1ccc(Oc2ccnc3cc(OC)cnc23)c(F)c1 [Compound 211, 5-(2,4-Difluorophenyl)-N-[3-fluoro-4-[(7-methoxy-1,5-naphthyridin-4-yl)oxy]phenyl]-4-hydroxy-2-(methoxymethyl)-6-methylpyridine-3-carboxamide] | < 100 | < 100 | < 100 |  |  |  | 
8 | COc1cnc2c(Oc3ccc(NC(=O)c4cn(CCO)c(C)c(-c5ccc(F)cc5)c4=O)cc3F)ccnc2c1 [Compound 621, N-[3-Fluoro-4-[(7-methoxy-1,5-naphthyridin-4-yl)oxy]phenyl]-5-(4-fluorophenyl)-1-(2-hydroxyethyl)-6-methyl-4-oxopyridine-3-carboxamide] |  |  | 100 to 300 |  |  |  | IC50 ([4]; protocol of Example B-2): > 300 nM; IC50 ([5]; protocol of Example C-2): < 100 nM; IC50 ([6]; protocol of Example D-2): < 100 nM; IC50 [7]: 100 to 300 nM
9 | COc1cc2nccc(Oc3ccc(NC(=O)c4c(C)n(C)cc(-c5ccc(F)cc5)c4=O)cc3)c2nc1OC [Compound 238, N-[4-[(6,7-Dimethoxy-1,5-naphthyridin-4-yl)oxy]phenyl]-5-(4-fluorophenyl)-1,2-dimethyl-4-oxopyridine-3-carboxamide] |  | < 100 | < 100 | > 300 | < 100 | < 100 | 
10 | Cc1cc(F)ccc1-c1c(C)ncc(C(=O)Nc2ccc(Oc3ccnc4cc(C(C)C)cnc34)cc2)c1O [Compound 597, 5-(4-Fluoro-2-methylphenyl)-4-hydroxy-6-methyl-N-[4-[(7-propan-2-yl-1,5-naphthyridin-4-yl)oxy]phenyl]pyridine-3-carboxamide] |  |  |  |  |  |  | IC50 ([4]; protocol of Example B-2): > 300 nM; IC50 ([5]; protocol of Example C-2): > 300 nM; IC50 ([6]; protocol of Example D-2): 100 to 300 nM; IC50 [7]: 100 to 300 nM
11 | COc1cc2nccc(Oc3ccc(NC(=O)c4cn(-c5ccccn5)cc(-c5ccc(F)cc5)c4=O)cc3F)c2nc1OC [Compound 124, N-[4-[(6,7-Dimethoxy-1,5-naphthyridin-4-yl)oxy]-3-fluorophenyl]-5-(4-fluorophenyl)-4-oxo-1-pyridin-2-ylpyridine-3-carboxamide] |  | < 100 | < 100 | > 300 | < 100 | < 100 | 
12 | Cc1ccc2nccc(Oc3ccc(NC(=O)c4c(C)nc(C)c(-c5ccc(F)cc5C)c4O)cc3)c2n1 [Compound 507, 5-(4-fluoro-2-methylphenyl)-4-hydroxy-2,6-dimethyl-N-[4-[(6-methyl-1,5-naphthyridin-4-yl)oxy]phenyl]pyridine-3-carboxamide] |  |  | 100 to 300 |  |  |  | IC50 ([4]; protocol of Example B-2): > 300 nM; IC50 ([5]; protocol of Example C-2): 100 to 300 nM; IC50 ([6]; protocol of Example D-2): < 100 nM; IC50 [7]: < 100 nM
13 | Cc1ncc(C(=O)Nc2ccc(Oc3ccnc4cc(F)cnc34)c(F)c2)c(O)c1-c1ccc(F)cc1 [Compound 160, N-[3-Fluoro-4-[(7-fluoro-1,5-naphthyridin-4-yl)oxy]phenyl]-5-(4-fluorophenyl)-4-hydroxy-6-methylpyridine-3-carboxamide] |  | < 100 |  | < 100 | < 100 | < 100 | IC50 [7]: < 100 nM
14 | COc1cc2nccc(Oc3ccc(NC(=O)c4cc(Br)c(C)n(-c5ccc(F)cc5)c4=O)cc3F)c2nc1OC [Compound 366, 5-bromo-N-[4-[(6,7-dimethoxy-1,5-naphthyridin-4-yl)oxy]-3-fluorophenyl]-1-(4-fluorophenyl)-6-methyl-2-oxopyridine-3-carboxamide] |  | < 100 | < 100 | 100 to 300 | < 100 | 100 to 300 | 
15 | COc1cc2nccc(Oc3ccc(NC(=O)c4cnc(C(F)(F)F)c(-c5ccc(F)cc5)c4O)cc3F)c2nc1OC [Compound 79, N-[4-[(6,7-Dimethoxy-1,5-naphthyridin-4-yl)oxy]-3-fluorophenyl]-5-(4-fluorophenyl)-4-hydroxy-6-(trifluoromethyl)pyridine-3-carboxamide] |  | 100 to 300 | < 100 | > 300 | < 100 | 100 to 300 | 
16 | COc1cc2nccc(Oc3ccc(NC(=O)c4cn(-c5cnn(C)c5)c(C)c(-c5ccc(F)cc5)c4=O)cc3)c2nc1OC [Compound 141, N-[4-[(6,7-Dimethoxy-1,5-naphthyridin-4-yl)oxy]phenyl]-5-(4-fluorophenyl)-6-methyl-1-(1-methylpyrazol-4-yl)-4-oxopyridine-3-carboxamide] |  | < 100 | < 100 | > 300 | < 100 | < 100 | 
